Measured values: US20200231638A1, “STABILIZED ANTI-MICROBIAL PEPTIDES” (priority 2015, published 2020)
Bridge positions count the residues as written; N and C are the ends. Square brackets hold non-standard residues; d marks the D form. Peptide text beside a SMILES is read from it. S5 = C=CCCC[C@](C)(N)C(=O)O; Nle = CCCC[C@H](N)C(=O)O

What was measured:
E. coli = assay type: cell-based, Escherichia coli
Procedure, shortened: (§1)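 MIC read as the minimum peptide concentration showing no visible growth after 20-24 hours at 37° C. Cultures were grown overnight, then regrown several hours before testing. Medium was MHB refined by anion exchange to strip polyanions; final inoculum 5×10^5 CFU/ml.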

B. cereus = assay type: cell-based, Bacillus cereus
Procedure, shortened: as §1

S. aureus = assay type: cell-based, Staphylococcus aureus
Procedure, shortened: as §1

P. aeruginosa = assay type: cell-based, Pseudomonas aeruginosa
Procedure, shortened: as §1

human red blood cells = assay type: cell-based; conditions: red cells of human, 1 h, 25
Procedure, shortened: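 Washed human RBCs as 1% (v/v) suspension in phosphate-buffered saline incubated 1 h at 37° C with serially diluted peptides. Hemoglobin release in supernatant measured spectrophotometrically (570 nm), % hemolysis relative to untreated and 1% Triton-X100 controls; MHC defined as concentration giving less than 1% release.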

SMILES	MIC E. coli (E. coli) [µg/mL]	MIC B. cereus (B. cereus) [µg/mL]	MIC S. aureus (S. aureus) [µg/mL]	MIC P. aeruginosa (P. aeruginosa) [µg/mL]	% Hemolysis at 25 μg/ml (human red blood cells) [%]
CCCC[C@H](NC(=O)[C@]1(C)CCCC=CCCC[C@](C)(NC(=O)[C@H](C)NC(=O)[C@H](CCCCN)NC(=O)[C@@H](CCCCN)NC(=O)[C@H](Cc2ccccc2)NC(=O)[C@H](CCCCN)NC(=O)[C@H](CCCCN)NC(=O)[C@H](C)NC(=O)[C@H](CO)NC(=O)[C@H](Cc2c[nH]cn2)NC(=O)[C@H](CC(C)C)NC(=O)[C@H](Cc2ccccc2)NC(=O)[C@H](CCCCN)NC(=O)CNC(=O)[C@@H](NC(=O)CN)[C@@H](C)CC)C(=O)N[C@@H](C(C)C)C(=O)NCC(=O)N[C@@H](CCC(=O)O)C(=O)N1)C(=O)N[C@@H](CC(N)=O)C(=O)N[C@@H](CO)C(N)=O [Mag(i + 4)15(G13k)] (H-GIGKFLHSAKKF[dK]KA[S5]VGE[S5][Nle]NS-NH2; staple 16-20)	3.1	50	>50	25	2.1
CCCC[C@H](NC(=O)[C@]1(C)CCCC=CCCC[C@](C)(NC(=O)[C@H](C)NC(=O)[C@H](CCCCN)NC(=O)CNC(=O)[C@H](Cc2ccccc2)NC(=O)[C@H](CCCCN)NC(=O)[C@H](CCCCN)NC(=O)[C@H](C)NC(=O)[C@H](CO)NC(=O)[C@H](Cc2c[nH]cn2)NC(=O)[C@H](CC(C)C)NC(=O)[C@H](Cc2ccccc2)NC(=O)[C@H](CCCCN)NC(=O)CNC(=O)[C@@H](NC(=O)CN)[C@@H](C)CC)C(=O)N[C@@H](C(C)C)C(=O)N[C@@H](CCC(=O)O)C(=O)N[C@@H](CCC(=O)O)C(=O)N1)C(=O)N[C@@H](CC(N)=O)C(=O)N[C@@H](CO)C(N)=O [Mag(i + 4)15(G18E), GIGKFLHSAKKFGKAXVEEXBNS] (H-GIGKFLHSAKKFGKA[S5]VEE[S5][Nle]NS-NH2; staple 16-20)	3.1	6.2	12.5	12.5	4.8
CCCC[C@H](NC(=O)[C@]1(C)CCCC=CCCC[C@](C)(NC(=O)[C@H](C)NC(=O)[C@H](CCCCN)NC(=O)CNC(=O)[C@H](Cc2ccccc2)NC(=O)[C@H](CCCCN)NC(=O)[C@H](CCCCN)NC(=O)[C@H](C)NC(=O)[C@H](CO)NC(=O)[C@H](Cc2c[nH]cn2)NC(=O)[C@H](CC(C)C)NC(=O)[C@H](Cc2ccccc2)NC(=O)[C@H](CCCCN)NC(=O)CNC(=O)[C@@H](NC(=O)CN)[C@@H](C)CC)C(=O)N[C@@H](C(C)C)C(=O)N[C@@H](Cc2c[nH]cn2)C(=O)N[C@@H](CCC(=O)O)C(=O)N1)C(=O)N[C@@H](CC(N)=O)C(=O)N[C@@H](CO)C(N)=O [Mag(i + 4)15(G18H), GIGKFLHSAKKFGKAXVHEXBNS] (H-GIGKFLHSAKKFGKA[S5]VHE[S5][Nle]NS-NH2; staple 16-20)	1.6	3.1	6.2	6.2	6.8
CCCC[C@H](NC(=O)[C@]1(C)CCCC=CCCC[C@](C)(NC(=O)[C@H](C)NC(=O)[C@H](CCCCN)NC(=O)CNC(=O)[C@H](Cc2ccccc2)NC(=O)[C@H](CCCCN)NC(=O)[C@H](CCCCN)NC(=O)[C@H](C)NC(=O)[C@H](CO)NC(=O)[C@H](Cc2c[nH]cn2)NC(=O)[C@H](CC(C)C)NC(=O)[C@H](Cc2ccccc2)NC(=O)[C@H](CCCCN)NC(=O)CNC(=O)[C@@H](NC(=O)CN)[C@@H](C)CC)C(=O)N[C@@H](C(C)C)C(=O)N[C@@H](CCCCN)C(=O)N[C@@H](CCC(=O)O)C(=O)N1)C(=O)N[C@@H](CC(N)=O)C(=O)N[C@@H](CO)C(N)=O [Mag(i + 4)15(G18K), GIGKFLHSAKKFGKAXVKEXBNS] (H-GIGKFLHSAKKFGKA[S5]VKE[S5][Nle]NS-NH2; staple 16-20)	1.6	3.1	12.5	3.1	10.1
CCCC[C@H](NC(=O)[C@]1(C)CCCC=CCCC[C@](C)(NC(=O)[C@H](C)NC(=O)[C@H](CCCCN)NC(=O)CNC(=O)[C@H](Cc2ccccc2)NC(=O)[C@H](CCCCN)NC(=O)[C@H](CCCCN)NC(=O)[C@H](C)NC(=O)[C@H](CO)NC(=O)[C@H](CCC(=O)O)NC(=O)[C@H](CC(C)C)NC(=O)[C@H](Cc2ccccc2)NC(=O)[C@H](CCCCN)NC(=O)CNC(=O)[C@@H](NC(=O)CN)[C@@H](C)CC)C(=O)N[C@@H](C(C)C)C(=O)NCC(=O)N[C@@H](CCC(=O)O)C(=O)N1)C(=O)N[C@@H](CC(N)=O)C(=O)N[C@@H](CO)C(N)=O [Mag(i + 4)15(H7E), GIGKFLESAKKFGKAXVGEXBNS] (H-GIGKFLESAKKFGKA[S5]VGE[S5][Nle]NS-NH2; staple 16-20)	3.1	6.2	25	12.5	2.9
CCCC[C@H](NC(=O)[C@]1(C)CCCC=CCCC[C@](C)(NC(=O)[C@H](C)NC(=O)[C@H](CCCCN)NC(=O)CNC(=O)[C@H](Cc2ccccc2)NC(=O)[C@H](CCCCN)NC(=O)[C@H](CCCCN)NC(=O)[C@H](C)NC(=O)[C@H](CO)NC(=O)[C@H](CCCCN)NC(=O)[C@H](CC(C)C)NC(=O)[C@H](Cc2ccccc2)NC(=O)[C@H](CCCCN)NC(=O)CNC(=O)[C@@H](NC(=O)CN)[C@@H](C)CC)C(=O)N[C@@H](C(C)C)C(=O)NCC(=O)N[C@@H](CCC(=O)O)C(=O)N1)C(=O)N[C@@H](CC(N)=O)C(=O)N[C@@H](CO)C(N)=O [Mag(i + 4)15(H7K), GIGKFLKSAKKFGKAXVGEXBNS] (H-GIGKFLKSAKKFGKA[S5]VGE[S5][Nle]NS-NH2; staple 16-20; N-terminus and C-terminus assumed)	1.6	3.1	6.2	3.1	3.1
CCCC[C@H](NC(=O)[C@]1(C)CCCC=CCCC[C@](C)(NC(=O)[C@H](C)NC(=O)[C@H](CCCCN)NC(=O)CNC(=O)[C@H](Cc2ccccc2)NC(=O)[C@H](CCCCN)NC(=O)[C@H](CCCCN)NC(=O)[C@H](C)NC(=O)[C@H](CO)NC(=O)[C@H](Cc2c[nH]cn2)NC(=O)[C@H](CC(C)C)NC(=O)[C@H](Cc2ccccc2)NC(=O)[C@H](CCCCN)NC(=O)CNC(=O)[C@H](CCC(=O)O)NC(=O)CN)C(=O)N[C@@H](C(C)C)C(=O)NCC(=O)N[C@@H](CCC(=O)O)C(=O)N1)C(=O)N[C@@H](CC(N)=O)C(=O)N[C@@H](CO)C(N)=O [Mag(i + 4)15(I2E), GEGKFLHSAKKFGKAXVGEXBNS] (H-GEGKFLHSAKKFGKA[S5]VGE[S5][Nle]NS-NH2; staple 16-20)	12.5	>50	>50	>50	3.6
CCCC[C@H](NC(=O)[C@]1(C)CCCC=CCCC[C@](C)(NC(=O)[C@H](C)NC(=O)[C@H](CCCCN)NC(=O)CNC(=O)[C@H](Cc2ccccc2)NC(=O)[C@H](CCCCN)NC(=O)[C@H](CCCCN)NC(=O)[C@H](C)NC(=O)[C@H](CO)NC(=O)[C@H](Cc2c[nH]cn2)NC(=O)[C@H](CC(C)C)NC(=O)[C@H](Cc2ccccc2)NC(=O)[C@H](CCCCN)NC(=O)CNC(=O)[C@H](CCCCN)NC(=O)CN)C(=O)N[C@@H](C(C)C)C(=O)NCC(=O)N[C@@H](CCC(=O)O)C(=O)N1)C(=O)N[C@@H](CC(N)=O)C(=O)N[C@@H](CO)C(N)=O [Mag(i + 4)15(I2K), GKGKFLHSAKKFGKAXVGEXBNS] (H-GKGKFLHSAKKFGKA[S5]VGE[S5][Nle]NS-NH2; staple 16-20)	1.6	12.5	23	3.1	2.3
